From patent publication EP0429333B1, “Process for producing oxazopyrroloquinolines, novel oxazopyrroloquinolines, and use of oxazopyrroloquinolines” (priority 1989, dated 1991)

Test system: peritoneal macrophage
Assay: Test on macrophage-chemotaxis after intraperitoneal administration
Format: in vivo, C3H/He mice
Conditions: for (2) Chemotaxis factor was present: 50 % zymosan treated serum, no administration 68; for (2) - (1) Chemotaxied macrophage: no administration 58; for Relative activity of group (%): no administration = 100; for (1) Chemotaxis factor was not present: total number of chemotaxied macrophages at 3 points, no administration 10
Method: Thirtytwo C3H/He mice (male, 7 weeks old, average body weight 20 g, supplied by Japan Charles River Co.) were divided into 4 groups (A - D) of 8 mice each.
A solution of OPQ in physiological saline of pH 7.0 was intraperitoneally administered to each mouse 7 times, namely, on the 1st day, 2nd day, 3rd day, 4th day, 5th day, 6th day and 7th day. Dosage for one administration per one mouse was as follows: That is, 0.2 ml of the solution containing 0.2 mg/ml of OPQ for group B, 0.2 ml of the solution containing 0.5 mg/ml of OPQ for group C, 0.2 ml of the solution containing 1.0 mg/ml of OPQ for group D and 0.2 ml of physiological saline for group A.
On the 8th day from starting of the experiment, the mice were anesthetized with ether and blood was drawn from carotid artery and 5 ml of cold Hanks solution was intraperitoneally injected and exudate cells for the abdominal cavity were collected. Exudate cells for the abdominal cavity of respective groups were gathered, washed three times with cold Hanks solution and suspended in RPMI medium at 5 x 10^5 cells/ml and macrophage-chemotaxis was measured. 50 % zymosan treated serum was used as chemotaxis factor and examination was conducted at three points for each sample. Number of chemotaxied macrophage was measured on microscope and 13 visual fields was examined for one point and the results are shown in Table 2. The value in the table is a total number of chemotaxied macrophages at 3 points for each sample. Preparation of Hanks solution and RPMI medium will be explained below.
Test on macrophage-chemotaxis was conducted in the same manner as in Example 36 except that hydroxymethyl OPQ was intraperitoneally administered to each mouce 3 times of the 1st day, the 2nd day and the 3rd day in the following dosage for one administration per one mouse: 0.2 ml of hydroxymethyl OPQ solution containing 0.5 mg/ml of hydroxymethyl OPQ for group B, 0.2 ml of the solution containing 1.0 mg/ml of hydroxymethyl OPQ for group C, and 0.2 ml of the solution containing 1.5 mg/ml of hydroxymethyl OPQ for group D and exudate cells for the abdominal cavity were collected on the 4th day from starting of experiment.
In Examples 36 - 40, macrophage activity was examined according to chemotaxis of peritoneal macrophage (literature 1) and activity of T cell and that of B cell were examined according to blast transformation reaction using concanavalin A and lipopolysaccharide, (LPS) as mitogen (literature 2). Literature 1: "Function of Macrophage and Method of Measurement of Function", pages 61-65 1985), edited by Educational Committee of Japan Bacteriological Society and published from Saikon Shuppan Co.) Literature 2: "New Method of Searching of Function of Lymphocytes", pages 350-355 (1987) edited by Junichi Yada and Michio Fujiwara and published from Chugai Igaku Co.

[1] = 2 mg/kg mouse x 7 days intraperitoneally
[2] = 5 mg/kg mouse x 7 days intraperitoneally
[3] = 10 mg/kg mouse x 7 days intraperitoneally

`O=C(O)c1cc(C(=O)O)c2c(n1)c1ncoc1c1cc(C(=O)O)[nH]c12` [OPQ, oxazopyrroloquinoline] was tested, and the “(2) Chemotaxis factor was present” value [1] was 107, the “(2) - (1) Chemotaxied macrophage” value [1] was 96 and the “Relative activity of group (%)” value [1] was 166%. The “(1) Chemotaxis factor was not present” value [1] was 11, the “(2) Chemotaxis factor was present” value [2] was 96 and the “(2) - (1) Chemotaxied macrophage” value [2] was 87. The “Relative activity of group (%)” value [2] was 150%, the “(1) Chemotaxis factor was not present” value [2] was 9 and the “(2) Chemotaxis factor was present” value [3] was 180. The “(2) - (1) Chemotaxied macrophage” value [3] was 173, the “Relative activity of group (%)” value [3] was 298% and the “(1) Chemotaxis factor was not present” value [3] was 7.
